Data from patent US20240376091A1, “THIADIAZOLEAMIDE DERIVATIVES AND THEIR APPLICATIONS” (ZHEJIANG UNIVERSITY, priority 2021, published 2024).
pIC50: −log10 of the molar value.

Biological target: T1, AR (Homo sapiens, UniProt P10275, T878A)
T1 construct: into the androgen-dependent PCa cells (LNCaP); endogenous in cells; host or cells: LNCaP-ARR2PB-eGFP
T1 sequence (P10275 1-920 T878A): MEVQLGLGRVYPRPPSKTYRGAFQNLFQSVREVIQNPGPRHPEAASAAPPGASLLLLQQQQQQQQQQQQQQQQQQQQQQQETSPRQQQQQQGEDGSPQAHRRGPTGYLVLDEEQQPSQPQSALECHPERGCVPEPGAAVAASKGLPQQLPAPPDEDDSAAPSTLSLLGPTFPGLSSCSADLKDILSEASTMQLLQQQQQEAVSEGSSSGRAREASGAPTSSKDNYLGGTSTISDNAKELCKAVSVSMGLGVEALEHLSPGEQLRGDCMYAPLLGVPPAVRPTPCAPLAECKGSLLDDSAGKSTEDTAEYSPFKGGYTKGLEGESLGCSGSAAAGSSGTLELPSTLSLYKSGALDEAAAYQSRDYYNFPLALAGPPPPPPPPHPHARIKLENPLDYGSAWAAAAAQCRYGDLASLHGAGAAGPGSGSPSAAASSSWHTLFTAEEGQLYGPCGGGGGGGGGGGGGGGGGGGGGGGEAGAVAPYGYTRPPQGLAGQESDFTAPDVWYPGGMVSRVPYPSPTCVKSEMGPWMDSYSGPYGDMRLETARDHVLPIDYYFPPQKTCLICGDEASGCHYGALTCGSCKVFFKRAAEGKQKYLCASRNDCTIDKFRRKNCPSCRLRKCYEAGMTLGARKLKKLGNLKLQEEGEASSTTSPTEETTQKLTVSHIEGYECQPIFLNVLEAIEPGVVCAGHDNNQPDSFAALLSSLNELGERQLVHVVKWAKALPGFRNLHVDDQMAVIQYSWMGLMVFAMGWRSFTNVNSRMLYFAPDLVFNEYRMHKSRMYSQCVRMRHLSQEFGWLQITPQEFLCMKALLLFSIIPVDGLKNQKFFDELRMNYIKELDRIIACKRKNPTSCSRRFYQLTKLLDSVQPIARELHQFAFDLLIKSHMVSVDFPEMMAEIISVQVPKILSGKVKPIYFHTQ
Test: AR transcriptional activity, LNCaP-ARR2PB-eGFP reporter cells
Format: cell-based
Conditions: read-out: IC50 AR transcriptional activities
Description: Detection principles: We conducted a stable transfection of promoter ARR2PB known for its strong AR responsiveness, into the androgen-dependent PCa cells (LNCaP). The expression of enhanced green fluorescent protein (eGFP) is depending on the degree of activation of AR. Therefore, LNCaP-ARR2PB-eGFP cell line could quantitatively determine the AR antagonistic activities of the compounds by evaluating the expression of eGFP.

Row | Structure (SMILES) | pIC50
1 | CC(=O)Cc1nsc(NC(=O)c2cc(-c3cccc([N+](=O)[O-])c3)oc2C)n1 [Compound A-2, 2-Methyl-5-(3-nitrophenyl)-N-(3-(2-oxopropyl)-1,2,4-thiadiazol-5-yl)furan-3-carboxamide] | 7.40
2 | CC(=O)Cc1nsc(NC(=O)c2cc(-c3ccccc3)oc2C)n1 [Compound A-5, 2-Methyl-N-(3-(2-oxopropyl)-1,2,4-thiadiazol-5-yl)-5-phenylfuran-3-carboxamide] | 6.02
3 | CCOc1cccc(-c2cc(C(=O)Nc3nc(CC(C)=O)ns3)c(C)o2)c1 [Compound A-6, 5-(3-Ethoxyphenyl)-2-methyl-N-(3-(2-oxopropyl)-1,2,4-thiadiazol-5-yl)furan-3-carboxamide] | 6.89
4 | CC(=O)Cc1nsc(NC(=O)c2cc(-c3cccc(F)c3)oc2C)n1 [Compound A-7, 5-(3-Fluorophenyl)-2-methyl-N-(3-(2-oxopropyl)-1,2,4-thiadiazol-5-yl)furan-3-carboxamide] | 5.94
5 | CC(=O)Cc1nsc(NC(=O)c2cc(-c3cccc(Br)c3)oc2C)n1 [Compound A-9, 5-(3-Bromophenyl)-2-methyl-N-(3-(2-oxopropyl)-1,2,4-thiadiazol-5-yl)furan-3-carboxamide] | 5.63
6 | CC(=O)Cc1nsc(NC(=O)c2cc(-c3cccc4ccccc34)oc2C)n1 [Compound A-11, 2-Methyl-5-(naphthalen-1-yl)-N-(3-(2-oxopropyl)-1,2,4-thiadiazol-5-yl)furan-3-carboxamide] | 5.37
7 | CC(=O)Cc1nsc(NC(=O)c2cc(-c3ccc4ccccc4c3)oc2C)n1 [Compound A-12, 2-Methyl-5-(naphthalen-2-yl)-N-(3-(2-oxopropyl)-1,2,4-thiadiazol-5-yl)furan-3-carboxamide] | 5.50
8 | CC(=O)Cc1nsc(NC(=O)c2cc(-c3cccc(OC(F)(F)F)c3)oc2C)n1 [Compound A-13, 2-Methyl-N-(3-(2-oxopropyl)-1,2,4-thiadiazol-5-yl)-5-(3-(trifluoromethoxy)phenyl)furan-3-carboxamide] | 6.32
9 | CC(=O)Cc1nsc(NC(=O)c2cc(-c3cccc(N)c3)oc2C)n1 [Compound A-24, 5-(3-Aminophenyl)-2-methyl-N-(3-(2-oxopropyl)-1,2,4-thiadiazol-5-yl)furan-3-carboxamide] | 5.79
10 | CC(=O)Cc1nsc(NC(=O)c2cc(-c3cccc(NC(C)=O)c3)oc2C)n1 [Compound A-25, 5-(3-Acetamidophenyl)-2-methyl-N-(3-(2-oxopropyl)-1,2,4-thiadiazol-5-yl)furan-3-carboxamide] | 4.87
11 | COC(=O)c1cccc(-c2cc(C(=O)Nc3nc(CC(C)=O)ns3)c(C)o2)c1 [Compound A-30, Methyl 3-(5-methyl-4-((3-(2-oxopropyl)-1,2,4-thiadiazol-5-yl)carbamoyl)furan-2-yl)benzoate] | 5.28
12 | [2H]c1c(-c2cccc(C#N)c2)oc(C)c1C(=O)Nc1nc(CC(C)=O)ns1 [Compound A-35, 5-(3-Cyanophenyl)-2-methyl-N-(3-(2-oxopropyl)-1,2,4-thiadiazol-5-yl)furan-4-d-3-carboxamide] | 6.14
13 | [2H]c1c(-c2cccc(OC(F)F)c2)oc(C)c1C(=O)Nc1nc(CC(C)=O)ns1 [Compound A-37, 5-(3-(Difluoromethoxy)phenyl)-2-methyl-N-(3-(2-oxopropyl)-1,2,4-thiadiazol-5-yl)furan-4-d-3-carboxamide] | 7.52
14 | Cc1oc(-c2cccc(C(F)(F)F)c2)cc1C(=O)Nc1nc(CC(C)N(C)C)ns1 (stereo not shown) [Compound A-38, N-(3-(2-(dimethylamino)propyl)-1,2,4-thiadiazol-5-yl)-2-methyl-5-(3-(trifluoromethyl)phenyl)furan-3-carboxamide] | 7.05
15 | CCN(CC)C(C)Cc1nsc(NC(=O)c2cc(-c3cccc(C(F)(F)F)c3)oc2C)n1 (stereo not shown) [Compound A-39, N-(3-(2-(diethylamino)propyl)-1,2,4-thiadiazol-5-yl)-2-methyl-5-(3-(trifluoromethyl)phenyl)furan-3-carboxamide] | 6.92
16 | Cc1oc(-c2cccc(C(F)(F)F)c2)cc1C(=O)Nc1nc(CC(C)N2CCOCC2)ns1 (stereo not shown) [Compound A-42, 2-Methyl-N-(3-(2-morpholinopropyl)-1,2,4-thiadiazol-5-yl)-5-(3-(trifluoromethyl)phenyl) furan-3-carboxamide] | 6.44
17 | Cc1oc(-c2cccc(C(F)(F)F)c2)cc1C(=O)Nc1nc(CC(C)N2CCN(C)CC2)ns1 (stereo not shown) [Compound A-43, 2-Methyl-N-(3-(2-(4-methylpiperazin-1-yl)propyl)-1,2,4-thiadiazol-5-yl)-5-(3-(trifluoro-methyl)phenyl)furan-3-carboxamide] | 7.40

Other lines, results leading:

Row | pIC50 | Structure (SMILES)
18 | 6.49 | CC(=O)Cc1nsc(NC(=O)c2cc(-c3cccc(C#N)c3)oc2C)n1 [Compound A-3, 5-(3-Cyanophenyl)-2-methyl-N-(3-(2-oxopropyl)-1,2,4-thiadiazol-5-yl)furan-3-carboxamide]
19 | 6.46 | COc1cccc(-c2cc(C(=O)Nc3nc(CC(C)=O)ns3)c(C)o2)c1 [Compound A-4, 5-(3-Methoxyphenyl)-2-methyl-N-(3-(2-oxopropyl)-1,2,4-thiadiazol-5-yl)furan-3-carboxamide]
20 | 5.77 | CC(=O)Cc1nsc(NC(=O)c2cc(-c3cccc(Cl)c3)oc2C)n1 [Compound A-8, 5-(3-Chlorophenyl)-2-methyl-N-(3-(2-oxopropyl)-1,2,4-thiadiazol-5-yl)furan-3-carboxamide]
21 | 5.91 | CC(=O)Cc1nsc(NC(=O)c2cc(-c3ccc(Cl)c(Cl)c3)oc2C)n1 [Compound A-10, 5-(3,4-Dichlorophenyl)-2-methyl-N-(3-(2-oxopropyl)-1,2,4-thiadiazol-5-yl)furan-3-carboxamide]
22 | 7.30 | CC(=O)Cc1nsc(NC(=O)c2cc(-c3cccc(OC(F)F)c3)oc2C)n1 [Compound A-14, 5-(3-(Difluoromethoxy)phenyl)-2-methyl-N-(3-(2-oxopropyl)-1,2,4-thiadiazol-5-yl)furan-3-carboxamide]
23 | 5.49 | CC(=O)Cc1nsc(NC(=O)c2cc(-c3cccc(O)c3)oc2C)n1 [Compound A-26, 5-(3-Hydroxyphenyl)-2-methyl-N-(3-(2-oxopropyl)-1,2,4-thiadiazol-5-yl)furan-3-carboxamide]
24 | 5.26 | CC(=O)Cc1nsc(NC(=O)c2cc(-c3cccc(OC(C)=O)c3)oc2C)n1 [Compound A-27, 3-(5-Methyl-4-((3-(2-oxopropyl)-1,2,4-thiadiazol-5-yl)carbamoyl)furan-2-yl)phenyl acetate]
25 | 5.99 | CC(=O)Cc1nsc(NC(=O)c2cc(-c3cccc(C(N)=O)c3)oc2C)n1 [Compound A-28, 5-(3-Carbamoylphenyl)-2-methyl-N-(3-(2-oxopropyl)-1,2,4-thiadiazol-5-yl)furan-3-carboxamide]
26 | 6.03 | CC(=O)Cc1nsc(NC(=O)c2cc(-c3cccc(C(=O)O)c3)oc2C)n1 [Compound A-29, 3-(5-Methyl-4-((3-(2-oxopropyl)-1,2,4-thiadiazol-5-yl)carbamoyl)furan-2-yl)benzoic acid]
27 | 5.20 | CC(=O)Cc1nsc(NC(=O)c2cc(-c3cccnc3)oc2C)n1 [Compound A-31, 2-Methyl-N-(3-(2-oxopropyl)-1,2,4-thiadiazol-5-yl)-5-(pyridin-3-yl)furan-3-carboxamide]
28 | 7.40 | [2H]c1c(-c2cccc(C(F)(F)F)c2)oc(C)c1C(=O)Nc1nc(CC(C)=O)ns1 [Compound A-34, 2-Methyl-N-(3-(2-oxopropyl)-1,2,4-thiadiazol-5-yl)-5-(3-(trifluoromethyl)phenyl)furan-4-d-3-carboxamide]
29 | 7.15 | [2H]c1c(-c2cccc(OC(F)(F)F)c2)oc(C)c1C(=O)Nc1nc(CC(C)=O)ns1 [Compound A-36, 2-Methyl-N-(3-(2-oxopropyl)-1,2,4-thiadiazol-5-yl)-5-(3-(trifluoromethoxy)phenyl)furan-4-d-3-carboxamide]
30 | 6.64 | Cc1oc(-c2cccc(C(F)(F)F)c2)cc1C(=O)Nc1nc(CC(C)N2CCCC2)ns1 (stereo not shown) [Compound A-40, 2-Methyl-N-(3-(2-(pyrrolidin-1-yl)propyl)-1,2,4-thiadiazol-5-yl)-5-(3-(trifluoromethyl)phenyl)furan-3-carboxamide]
31 | 6.77 | Cc1oc(-c2cccc(C(F)(F)F)c2)cc1C(=O)Nc1nc(CC(C)N2CCCCC2)ns1 (stereo not shown) [Compound A-41, 2-Methyl-N-(3-(2-(piperidin-1-yl)propyl)-1,2,4-thiadiazol-5-yl)-5-(3-(trifluoromethyl)phenyl)furan-3-carboxamide]
